Data taken from US9127044B2, “Cyclic depsipeptides” (NOVARTIS AG, priority 2007, dated 2015).
Like-named read-outs stand apart in the source and are kept apart here.

Columns and labels:
[1] = molecular target: human kallikrein 7 (Homo sapiens, UniProt P49862); assay: Kallikrein-7 inhibitory activity in vitro (fluorescence-quenched substrate); type: biochemical
Protocol: (§1) IC50 for human kallikrein can be measured using the fluorescence-quenched substrate Ac-Glu-Asp(EDANS)-Lys-Pro-Ale-Leu-Phe^Arg-Leu-Gly-Lys(DABCYL)-Glu-NH2 (where ^ indicates the scissile bond, identified by MS analysis) which can be purchased from Biosyntan (Berlin, Germany). Enzymatic reactions are conducted in 50 mM sodium citrate buffer at pH 5.6 containing 150 mM NaCl and 0.05% (w/v) CHAPS. For the determination of IC50 values the assay is performed at room temperature in 384-well plates. All final assay volumes are 30 μl. Test compounds are dissolved in 90% (v/v) DMSO/water and diluted in water (containing 0.05% (w/v) CHAPS) to 3-times the desired assay concentration. The 11 final compound concentrations are: 0.3 nM, 1 nM, 3 nM, 10 nM, 30 nM, 100 nM, 300 nM, 1 μM, 3 μM, 10 μM and 30 μM. For each assay, 10 μl water/CHAPS (±test compound) are added per well, followed by 10 μl protease solution (diluted with 1.5× assay buffer). The protease concentration in final assay solution is 0.2 nM (according to the enzyme concentrations determined by the Bradford method). After 1 hour of incubation at room temperature, the reaction is started by addition of 10 μl substrate solution (substrate dissolved in 1.5× assay buffer, final concentration is 2 μM). […] The IC50 value is calculated from the plot of percentage of inhibition vs. inhibitor concentration using non-linear regression analysis software (XLfit, Vers. 4.0; ID Business Solution Ltd., Guildford, Surrey, UK).
The fluorescence-quenched substrate Ac-Glu-Asp(EDANS)-Lys-Pro-Ale-Leu-Phe^Arg-Leu-Gly-Lys(DABCYL)-Glu-NH2 (where ^ indicates the scissile bond, identified by MS analysis) is purchased from Biosyntan (Berlin, Germany) and kept as a 5 mM stock solution in DMSO at −20° C. All other chemicals are of analytical grade.
Enzymatic reactions are conducted in 50 mM sodium citrate buffer at pH 5.6 containing 150 mM NaCl and 0.05% (w/v) CHAPS.
All protein and peptide containing solutions are handled in siliconized tubes (Life Systems Design, Merenschwand, Switzerland). The compound solutions as well as the enzyme and the substrate solutions are transferred to the 384-well plates (black Cliniplate; cat. no. 95040020 Labsystems Oy, Finland) by means of a CyBi-Well 96-channel pipettor (CyBio AG, Jena, Germany).
(§2) For fluorescence intensity (FI) measurements an Ultra Evolution reader (TECAN, Maennedorf, Switzerland) is used. The instrument is equipped with a combination of a 350 nm (20 nm bandwidth) and a 500 nm (25 nm bandwidth) bandpass filter for fluorescence excitation and emission acquisition, respectively. To increase the signal:background ratio, an appropriate dichroic mirror is employed. The optical filters and the dichroic mirror are purchased from TECAN. The fluorophores in each well are excited by three flashes per measurement.
as §1, with “For” for “IC50 for human kallikrein can be measured using the fluorescence-quenched substrate Ac-Glu-Asp(EDANS)-Lys-Pro-Ale-Leu-Phe^Arg-Leu-Gly-Lys(DABCYL)-Glu-NH2 (where ^ indicates the scissile bond, identified by MS analysis) which can be purchased from Biosyntan (Berlin, Germany). Enzymatic reactions are conducted in 50 mM sodium citrate buffer at pH 5.6 containing 150 mM NaCl and 0.05% (w/v) CHAPS. For”, “volumes were” for “volumes are”, “concentration was” for “concentration is”

[2] = molecular target: T1, Human neutrophil elastase (Homo sapiens, UniProt P08246); assay: HNE inhibitory activity in vitro (fluorescence-quenched substrate); type: biochemical
T1 construct: purchased Elastin Products Company, Inc. (EPC, Owensville, USA) SE563
T1 sequence (P08246 30-267): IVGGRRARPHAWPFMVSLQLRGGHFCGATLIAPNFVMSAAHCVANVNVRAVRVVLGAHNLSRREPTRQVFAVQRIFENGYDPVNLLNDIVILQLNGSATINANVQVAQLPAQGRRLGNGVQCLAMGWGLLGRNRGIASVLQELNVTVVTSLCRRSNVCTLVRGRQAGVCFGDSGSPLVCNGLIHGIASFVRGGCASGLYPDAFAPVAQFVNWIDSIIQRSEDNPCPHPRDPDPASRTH
Protocol: Human neutrophil elastase (cat. no. SE563) is purchased from Elastin Products Company, Inc. (EPC, Owensville, USA). The dry powder (purity >95% stated by the supplier) was dissolved in 20 mM sodium acetate buffer, pH 5.0, 50% (v/v) glycerol, and frozen at −80° C. in aliquots.
The fluorescence-quenched substrate (DABCYL-Ser-Glu-Val^Asn-Leu-Asp-Ala-Glu-Phe-EDANS, where ^ indicates the scissile bond, identified by MS analysis) was purchased from Bachem AG (Bubendorf, Switzerland), and kept as a 5 mM stock solution in DMSO at −20° C. All other chemicals were of analytical grade.
Enzymatic reactions were conducted in 100 mM Tris/HCl buffer at pH 7.5, containing 500 mM NaCl, and 0.05% (w/v) CHAPS.
All protein and peptide containing solutions are handled in siliconized tubes (Life Systems Design, Merenschwand, Switzerland).
The compound solutions as well as the enzyme and the substrate solutions are transferred to the 384-well plates (black Cliniplate; cat. no. 95040020 Labsystems Oy, Finland) by means of a CyBi-Well 96-channel pipettor (CyBio AG, Jena, Germany).
as §2

[3] = Table 11, read-out: hKallikrein7 IC 50
[4] = Table 11, read-out: human neutrophile elastase IC 50

Sequence of human kallikrein 7 (P49862 30-253): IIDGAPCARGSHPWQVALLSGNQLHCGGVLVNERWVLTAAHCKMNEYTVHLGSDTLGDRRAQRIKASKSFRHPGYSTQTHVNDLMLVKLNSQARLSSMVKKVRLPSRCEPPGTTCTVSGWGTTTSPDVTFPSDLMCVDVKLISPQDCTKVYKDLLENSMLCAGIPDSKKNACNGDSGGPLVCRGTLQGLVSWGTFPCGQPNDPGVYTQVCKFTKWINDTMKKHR

SMILES | IC50 [1, 3] [nM] | IC50 [2, 4] [nM] | IC50 ([1]; read-out: IC50 for human kallikrein 7) [nM] | IC50 ([1]; hKallikrein7 IC 50, Table 11) [nM] | IC50 [2] [nM]
CCC(C)C1NC(=O)C(Cc2ccc(O)cc2)N(C)C(=O)C(C(C)CC)N2C(=O)C(CCC2OCC(C)C)NC(=O)C(CC(C)C)NC(=O)C(NC(=O)C(CCC(N)=O)NC(=O)C(C)C)C(C)OC1=O (stereo not shown) [example 12] | – | – | – | 8.5 | 6
CCC(C)[C@@H]1NC(=O)[C@H](Cc2ccc(O)cc2)N(C)C(=O)[C@H](Cc2ccccc2)N2C(=O)C(CC[C@@H]2O)NC(=O)[C@H](CC(C)C)NC(=O)[C@@H](NC(=O)[C@H](CCCNC(N)=O)NC(=O)C(C)C)[C@@H](C)OC1=O (stereo partly shown) [formula XV] | – | – | – | 4 | 80
CCCCOC1CCC2NC(=O)C(CC(C)C)NC(=O)C(NC(=O)C(CCC(N)=O)NC(=O)C(C)C)C(C)OC(=O)C(C(C)CC)NC(=O)C(Cc3ccc(O)cc3)N(C)C(=O)C(C(C)CC)N1C2=O (stereo not shown) [example 11] | – | – | – | 6 | 12
CCC(C)C1NC(=O)C(Cc2ccc(OC(=O)OC3CCC4(C)C(=CCC5C4CCC4(C)C(C(C)CCCC(C)C)CCC54)C3)cc2)N(C)C(=O)C(C(C)CC)N2CCCC(NC(=O)C(CC(C)C)NC(=O)C(NC(=O)C(CCC(N)=O)NC(=O)C(C)C)C(C)OC1=O)C2=O (stereo not shown) [example 30] | 1050 | 4550 | – | – | –
CCC(C)C1NC(=O)C(Cc2ccc(O)cc2)N(C)C(=O)C(C(C)CC)N2C(=O)C(CCC2OC)NC(=O)C(CC(C)C)NC(=O)C(NC(=O)C(CCC(=O)OC)NC(=O)C(C)C)C(C)OC1=O (stereo not shown) [example 20] | – | – | – | 1.5 | 8
CCC(C)[C@@H]1NC(=O)[C@H](Cc2ccc(O)cc2)N(C)C(=O)[C@@H](C(C)CC)N2C=CC[C@H](NC(=O)[C@H](CC(C)C)NC(=O)[C@@H](NC(=O)[C@H](CCC(N)=O)NC(=O)C(C)C)[C@@H](C)OC1=O)C2=O (stereo partly shown) [formula V] | – | – | – | 6 | 60
CCC(C)[C@@H]1NC(=O)[C@H](Cc2ccc(O)cc2)N(C)C(=O)[C@H](C(C)CC)N2C(=O)C(CC[C@@H]2O)NC(=O)[C@H](CC(C)C)NC(=O)[C@@H](NC(=O)[C@H](CCC(N)=O)NC(C)=O)[C@@H](C)OC1=O (stereo partly shown) [formula XII] | – | – | – | 4 | 50
CCC(C)C1NC(=O)C(Cc2ccc(O)cc2)N(C)C(=O)C(C(C)CC)N2C(=O)C(CCC2OCCOCCOC)NC(=O)C(CC(C)C)NC(=O)C(NC(=O)C(CCC(N)=O)NC(=O)C(C)C)C(C)OC1=O (stereo not shown) [example 16] | – | – | – | 15 | 5
CCC(C)C1NC(=O)C(Cc2ccc(O)cc2)N(C)C(=O)C(C(C)CC)N2C(=O)C(CCC2OCCOCCO)NC(=O)C(CC(C)C)NC(=O)C(NC(=O)C(CCC(N)=O)NC(=O)C(C)C)C(C)OC1=O (stereo not shown) [example 15] | – | – | – | 15 | 5
CCC(C)[C@@H]1NC(=O)[C@H](Cc2ccc(O)cc2)N(C)C(=O)[C@H](C(C)CC)N2C(=O)C(CC[C@@H]2O)NC(=O)[C@H](CC(C)C)NC(=O)[C@@H](NC(=O)[C@H](CCC(=O)O)NC(=O)C(C)C)[C@@H](C)OC1=O (stereo partly shown) [example 47] | – | – | – | 100 | 10

Continued, in another order:

IC50 [1, 3] [nM] | IC50 [2, 4] [nM] | IC50 ([1]; read-out: IC50 for human kallikrein 7) [nM] | SMILES | IC50 ([1]; hKallikrein7 IC 50, Table 11) [nM] | IC50 [2] [nM]
8.5 | 3.5 | – | CCCOC1CCC2NC(=O)C(CC(C)C)NC(=O)C(NC(=O)C(CCC(N)=O)NC(=O)C(C)C)C(C)OC(=O)C(C(C)CC)NC(=O)C(Cc3ccc(OCC=CC(F)(F)F)cc3)N(C)C(=O)C(C(C)CC)N1C2=O (stereo not shown) [example 36] | – | –
2.5 | 30 | – | CCC(C)C1NC(=O)C(Cc2ccc(OC(=O)OCCOC)cc2)N(C)C(=O)C(C(C)CC)N2CCCC(NC(=O)C(CC(C)C)NC(=O)C(NC(=O)C(CCC(N)=O)NC(=O)C(C)C)C(C)OC1=O)C2=O (stereo not shown) [example 28] | – | –
2 | 3 | – | CCCOC1CCC2NC(=O)C(CC(C)C)NC(=O)C(NC(=O)C(CCC(N)=O)NC(=O)C(C)C)C(C)OC(=O)C(C(C)CC)NC(=O)C(Cc3ccc(OCc4cn(CCOCCOCCN=[N+]=[N-])nn4)cc3)N(C)C(=O)C(C(C)CC)N1C2=O (stereo not shown) [example 45] | – | –
6 | 55 | – | CCC(C)C1NC(=O)C(Cc2ccc(O)cc2)N(C)C(=O)C(C(C)CC)N2CCCC(NC(=O)C(CC(C)C)NC(=O)C(NC(=O)C(CCC(N)=O)NC(=O)C(C)C)C(C)OC1=O)C2=O (stereo not shown) [example 4] | – | –
0.85 | 4.5 | – | CCCCCCOC(=O)Oc1ccc(CC2C(=O)NC(C(C)CC)C(=O)OC(C)C(NC(=O)C(CCC(N)=O)NC(=O)C(C)C)C(=O)NC(CC(C)C)C(=O)NC3CCC(O)N(C3=O)C(C(C)CC)C(=O)N2C)cc1 (stereo not shown) [example 26] | – | –
6.5 | 2.5 | – | C=CCOc1ccc(CC2C(=O)NC(C(C)CC)C(=O)OC(C)C(NC(=O)C(CCC(N)=O)NC(=O)C(C)C)C(=O)NC(CC(C)C)C(=O)NC3CCC(OCCC)N(C3=O)C(C(C)CC)C(=O)N2C)cc1 (stereo not shown) [example 40] | – | –
100 | 30 | – | CCCOC1CCC2NC(=O)C(CC(C)C)NC(=O)C(NC(=O)C(CCC(N)=O)NC(=O)C(C)C)C(C)OC(=O)C(C(C)CC)NC(=O)C(Cc3ccc(OCC=Cc4ccccc4)cc3)N(C)C(=O)C(C(C)CC)N1C2=O (stereo not shown) [example 32] | – | –
4.5 | 35 | 5 | CCC(C)[C@@H]1NC(=O)[C@H](Cc2ccc(OCC(=O)OC(C)(C)C)cc2)N(C)C(=O)[C@H](C(C)CC)N2CCCC(NC(=O)[C@H](CC(C)C)NC(=O)[C@@H](NC(=O)[C@H](CCC(N)=O)NC(=O)C(C)C)[C@@H](C)OC1=O)C2=O (stereo partly shown) [example 33] | – | –
2 | 1 | – | C#CCOc1ccc(CC2C(=O)NC(C(C)CC)C(=O)OC(C)C(NC(=O)C(CCC(N)=O)NC(=O)C(C)C)C(=O)NC(CC(C)C)C(=O)NC3CCC(OCCC)N(C3=O)C(C(C)CC)C(=O)N2C)cc1 (stereo not shown) [example 41] | – | –
3 | 25 | – | CCOC(=O)Oc1ccc(C[C@H]2C(=O)N[C@@H](C(C)CC)C(=O)O[C@H](C)[C@H](NC(=O)[C@H](CCC(N)=O)NC(=O)C(C)C)C(=O)N[C@@H](CC(C)C)C(=O)NC3CCCN(C3=O)[C@@H](C(C)CC)C(=O)N2C)cc1 (stereo partly shown) [example 29] | – | –
7 | 4 | – | CCCOC1CCC2NC(=O)C(CC(C)C)NC(=O)C(NC(=O)C(CCC#N)NC(=O)C(C)C)C(C)OC(=O)C(C(C)CC)NC(=O)C(Cc3ccc(O)cc3)N(C)C(=O)C(C(C)CC)N1C2=O (stereo not shown) [example 24] | – | –
